PMC8745601 (International Journal of Molecular Sciences, 2021)
Changes are numbered by the printed parent chain.

Experiments:
[1] = test system: transfected cell lines and tumorous cell lines; assay: Short-term cytotoxicity check (Presto Blue cell viability assay); assay type: cell-based; conditions: concentrations tested (100 µmol/L), data not shown
OATP1A2*1 = molecular target: T1, OATP1A2*1 (Homo sapiens, UniProt P46721); assay: in vitro
T1 sequence (P46721 1-670): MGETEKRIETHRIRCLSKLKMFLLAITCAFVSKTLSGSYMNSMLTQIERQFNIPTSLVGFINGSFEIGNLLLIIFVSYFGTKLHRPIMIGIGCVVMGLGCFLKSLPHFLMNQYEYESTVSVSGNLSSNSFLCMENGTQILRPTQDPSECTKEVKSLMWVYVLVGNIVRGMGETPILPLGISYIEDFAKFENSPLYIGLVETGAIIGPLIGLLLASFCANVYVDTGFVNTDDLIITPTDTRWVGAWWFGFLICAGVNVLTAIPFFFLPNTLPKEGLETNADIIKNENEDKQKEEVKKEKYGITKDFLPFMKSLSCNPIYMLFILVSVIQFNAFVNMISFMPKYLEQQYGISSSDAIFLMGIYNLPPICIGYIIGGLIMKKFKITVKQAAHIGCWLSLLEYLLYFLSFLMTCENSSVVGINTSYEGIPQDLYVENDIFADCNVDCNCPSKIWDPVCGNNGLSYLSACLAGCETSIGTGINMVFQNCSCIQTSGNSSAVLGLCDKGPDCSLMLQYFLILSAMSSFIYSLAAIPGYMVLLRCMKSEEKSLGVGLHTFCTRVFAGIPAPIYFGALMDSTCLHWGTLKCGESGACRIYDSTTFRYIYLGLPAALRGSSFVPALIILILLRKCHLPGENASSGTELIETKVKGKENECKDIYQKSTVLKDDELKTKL
Experimental: (§2) Cellular uptake studies: For all transport studies, cells were seeded in 24-well plates and incubated in a full growth medium at an initial density of 200,000 cells/well for 3 days. Before starting each transport experiment, cells were washed with a pre-warmed (37 °C) incubation buffer [64]. […] Protein concentration of whole cell lysate was determined to quantify cell density after each experiment using the BCA assay according to the manufacturer’s instructions (Pierce, Rockford, IL, USA).
(§3) Protein abundance of OATP1A2*1–*3 and OCT1–3 were measured by mass spectrometry-based targeted proteomics using a validated LC-MS/MS method as recently described [65].
(§4) 200 μL of each cell lysate sample was mixed with 25 μL internal standard (5 µg/mL daunorubicin), 25 μL citric acid (1%), and 400 μL ice-cold acetonitrile for protein precipitation. […] The clear supernatant was transferred to HPLC vials. The measurement and quantitative evaluation were carried out using the LC-MS/MS system QTRAP 4000® (AB SCIEX, Darmstadt, Germany) and the Software Analyst® 1.4 (Applied Biosystems, Darmstadt, Germany).
(§5) Statistical evaluation: All experiments were performed at least three times unless otherwise noted. The OATP1A2*1–*3 and OCT1-3 net uptake was obtained by subtracting the uptake into wild-type cells from that of the transporter-transfected cells. […]

[2] = pH 7.4; cited from earlier work
OATP1A2*2 = molecular target: T2, OATP1A2*2 (Homo sapiens, UniProt P46721, I13T); assay: in vitro
T2 sequence (P46721 1-670 I13T): T1 sequence (P46721 1-670) with I13T
Experimental: as §2, §3, §4, §5

[3] = cumulative dose 450–600 mg/m^2; cited from earlier work
P-gp = molecular target: T3, P-gp (Homo sapiens, UniProt P08183); assay: Transwell assay, MDCKII cells stably expressing P-gp; assay type: cell-based; conditions: 100 µmol/L doxorubicin; MDCKII-P-gp on Transwell
T3 construct: expressed in transfected cells; host or cells: MDCKII
T3 sequence (P08183 whole entry): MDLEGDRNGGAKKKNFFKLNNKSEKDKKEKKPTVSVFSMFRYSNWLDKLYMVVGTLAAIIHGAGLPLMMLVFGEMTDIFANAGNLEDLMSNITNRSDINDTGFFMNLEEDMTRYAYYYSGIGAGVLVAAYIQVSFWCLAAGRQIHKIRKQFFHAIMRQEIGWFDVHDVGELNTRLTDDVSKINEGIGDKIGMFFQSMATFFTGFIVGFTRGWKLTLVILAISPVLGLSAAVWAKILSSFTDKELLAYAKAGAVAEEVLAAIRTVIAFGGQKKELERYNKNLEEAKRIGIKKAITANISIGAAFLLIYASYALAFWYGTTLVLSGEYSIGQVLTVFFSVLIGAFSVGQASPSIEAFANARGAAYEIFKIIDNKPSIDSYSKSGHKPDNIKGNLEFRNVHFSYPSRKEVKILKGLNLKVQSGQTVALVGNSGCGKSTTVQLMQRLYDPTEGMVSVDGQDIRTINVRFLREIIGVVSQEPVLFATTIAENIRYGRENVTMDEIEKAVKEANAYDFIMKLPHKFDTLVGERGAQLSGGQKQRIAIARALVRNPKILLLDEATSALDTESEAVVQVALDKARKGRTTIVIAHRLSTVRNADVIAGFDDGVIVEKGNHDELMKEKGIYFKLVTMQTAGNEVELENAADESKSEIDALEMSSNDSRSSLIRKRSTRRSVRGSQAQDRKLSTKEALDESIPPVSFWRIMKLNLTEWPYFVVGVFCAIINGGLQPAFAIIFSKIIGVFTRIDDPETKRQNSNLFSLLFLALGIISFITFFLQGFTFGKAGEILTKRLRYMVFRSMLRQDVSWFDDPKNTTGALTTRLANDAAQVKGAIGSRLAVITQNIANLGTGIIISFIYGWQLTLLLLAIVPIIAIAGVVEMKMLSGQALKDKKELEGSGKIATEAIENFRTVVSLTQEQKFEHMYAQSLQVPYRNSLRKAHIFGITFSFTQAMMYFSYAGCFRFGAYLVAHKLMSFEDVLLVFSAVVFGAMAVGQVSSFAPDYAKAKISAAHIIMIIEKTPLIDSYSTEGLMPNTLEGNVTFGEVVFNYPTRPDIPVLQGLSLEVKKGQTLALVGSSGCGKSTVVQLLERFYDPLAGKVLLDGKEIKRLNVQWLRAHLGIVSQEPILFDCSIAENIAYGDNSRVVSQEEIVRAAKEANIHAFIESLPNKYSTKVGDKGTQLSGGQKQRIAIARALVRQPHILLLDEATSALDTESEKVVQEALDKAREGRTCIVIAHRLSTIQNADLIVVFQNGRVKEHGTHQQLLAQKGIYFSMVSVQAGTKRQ
Experimental: (§1) In brief, MDCKII cells stably expressing P-gp or BCRP were seeded on 0.4 µm Transwell® membrane inserts (200.000 cells/insert; Ø6.5 mm, growth area 0.33 cm2) and allowed to differentiate for five days. The integrity of the monolayer was confirmed by monitoring the trans-epithelial electrical resistance (TEER) using the EVOMX system (WPI, Sarasota, FL, USA). […] Every 30 min, the incubation buffer was removed from the receiver compartment and replaced by a freshly preheated buffer for a total time of 2.5 h.

BCRP = molecular target: T4, BCRP (Homo sapiens, UniProt Q9UNQ0); assay: Transwell assay, MDCKII cells stably expressing BCRP; assay type: cell-based; conditions: 100 µmol/L doxorubicin; MDCKII-BCRP on Transwell
T4 construct: expressed in transfected cells; host or cells: MDCKII
T4 sequence (Q9UNQ0 1-655): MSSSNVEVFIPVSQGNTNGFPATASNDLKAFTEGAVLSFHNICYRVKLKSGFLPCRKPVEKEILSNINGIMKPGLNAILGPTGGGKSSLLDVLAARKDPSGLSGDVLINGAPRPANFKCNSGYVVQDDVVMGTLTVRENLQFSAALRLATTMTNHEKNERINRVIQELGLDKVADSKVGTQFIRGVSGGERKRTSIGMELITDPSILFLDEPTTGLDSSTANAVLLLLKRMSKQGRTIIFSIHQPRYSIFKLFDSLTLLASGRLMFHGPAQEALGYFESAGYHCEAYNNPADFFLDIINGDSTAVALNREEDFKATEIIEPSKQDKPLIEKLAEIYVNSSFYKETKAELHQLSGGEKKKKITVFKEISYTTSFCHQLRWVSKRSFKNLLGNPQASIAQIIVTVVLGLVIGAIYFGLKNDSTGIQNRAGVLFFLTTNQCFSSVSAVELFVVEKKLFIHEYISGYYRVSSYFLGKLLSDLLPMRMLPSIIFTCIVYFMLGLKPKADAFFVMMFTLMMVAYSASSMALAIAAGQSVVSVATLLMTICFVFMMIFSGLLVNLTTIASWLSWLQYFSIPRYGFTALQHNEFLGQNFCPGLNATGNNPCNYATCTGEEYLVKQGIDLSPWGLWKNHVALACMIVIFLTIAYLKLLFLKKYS
Experimental: as §1

COc1cccc2c1C(=O)c1c(O)c3c(c(O)c1C2=O)C[C@@](O)(C(=O)CO)C[C@@H]3O[C@H]1C[C@H](N)[C@H](O)[C@H](C)O1 [doxorubicin, Doxorubicin]
cytotoxic effects within one hour [1]: no cytotoxic effects | Km at 5 min (OATP1A2*1; HEK293 cells stably expressing OATP1A2*1): 7.49 ± 3.41 µM | microsomal CLint at 5 min (OATP1A2*1; other cell line): 4.71 ± 1.53 µL/min/mg | present as cationic moiety [2]: 89% | Km (OATP1A2*2; HEK293 cells stably expressing OATP1A2*2): 5.84 ± 3.95 µM | microsomal CLint (OATP1A2*2; other cell line): 1.39 ± 0.65 µL/min/mg | risk of congestive heart failure [3]: 3–18% | vectorial transport of doxorubicin by P-gp (P-gp): vectorial transport from the basolateral to the apical compartment | vectorial transport of doxorubicin by BCRP (BCRP): vectorial transport from the basolateral to the apical compartment
